From patent US9309254B2, “Pyrimidinyl-diazospiro compounds” (CONVERGENCE PHARMACEUTICALS LIMITED, priority 2012, dated 2016)
Structures can show the parent of a compound that is named as a salt. Where two headings read alike, the source gives them in different places.

Molecular target: T1, hNaV1.7 (Homo sapiens, UniProt Q15858)
T1 construct: expressed in transfected cells; host or cells: HEK293
Experiment: QPatch NaV1.7 assay
Format: cell-based
Details: HEK293-hNaV1.7 cells, QPatch16x
Experimental: The compounds of the invention were tested in a QPatch NaV1.7 assay.
HEK293-hNaV1.7 cells were grown in DMEM-F12+10% FBS culture media at 37° C. At a confluency of 50-70% cells were dissociated from culture flasks & triturated to ensure unicellular cell suspension; cell density was measured & adjusted to 2-3×10^6 cells/ml. Recordings were obtained using QPatch16x. The external solution was (in mM): NaCl, 128; KCl, 5; MgCl2, 2; CaCl2, 2; Glucose, 30; HEPES, 15; pH 7.3, 305-315 mOsm. Following seal formation and whole-cell access using internal solution (containing in mM: CsF, 135; EGTA/CsOH, 1/5; HEPES 10; NaCl, 10; pH 7.3, 310-320mOsM), voltage pulse protocols were applied. Initially a steady state inactivation voltage protocol was used to determine the half-maximal voltage for steady state inactivation (V1/2 SSI). Two holding voltages were used to determine test drug inhibition: −90 mV, where most of the channels are in a closed state; and V1/2 SSI, where half of the channels are inactivated. Currents were elicited every 10 seconds by stepping to a membrane potential of 0 mV for 20 ms. Four-point cumulative concentration responses were derived by determining the peak current amplitude at each concentration of test drug over 120 second application. Curves were fitted with the Hill equation yielding pIC50 values at −90 mV and V1/2 SSI holding potentials.

[1] = holding voltage V1/2 SSI, where half of the channels are inactivated, read-out: QP Nav1.7 SSI vhalf pIC50 (converted)
[2] = holding voltage −90 mV, where most of the channels are in a closed state, read-out: QP Nav1.7 - 90 mV pIC50 (converted)

T1 sequence (Q15858 whole entry): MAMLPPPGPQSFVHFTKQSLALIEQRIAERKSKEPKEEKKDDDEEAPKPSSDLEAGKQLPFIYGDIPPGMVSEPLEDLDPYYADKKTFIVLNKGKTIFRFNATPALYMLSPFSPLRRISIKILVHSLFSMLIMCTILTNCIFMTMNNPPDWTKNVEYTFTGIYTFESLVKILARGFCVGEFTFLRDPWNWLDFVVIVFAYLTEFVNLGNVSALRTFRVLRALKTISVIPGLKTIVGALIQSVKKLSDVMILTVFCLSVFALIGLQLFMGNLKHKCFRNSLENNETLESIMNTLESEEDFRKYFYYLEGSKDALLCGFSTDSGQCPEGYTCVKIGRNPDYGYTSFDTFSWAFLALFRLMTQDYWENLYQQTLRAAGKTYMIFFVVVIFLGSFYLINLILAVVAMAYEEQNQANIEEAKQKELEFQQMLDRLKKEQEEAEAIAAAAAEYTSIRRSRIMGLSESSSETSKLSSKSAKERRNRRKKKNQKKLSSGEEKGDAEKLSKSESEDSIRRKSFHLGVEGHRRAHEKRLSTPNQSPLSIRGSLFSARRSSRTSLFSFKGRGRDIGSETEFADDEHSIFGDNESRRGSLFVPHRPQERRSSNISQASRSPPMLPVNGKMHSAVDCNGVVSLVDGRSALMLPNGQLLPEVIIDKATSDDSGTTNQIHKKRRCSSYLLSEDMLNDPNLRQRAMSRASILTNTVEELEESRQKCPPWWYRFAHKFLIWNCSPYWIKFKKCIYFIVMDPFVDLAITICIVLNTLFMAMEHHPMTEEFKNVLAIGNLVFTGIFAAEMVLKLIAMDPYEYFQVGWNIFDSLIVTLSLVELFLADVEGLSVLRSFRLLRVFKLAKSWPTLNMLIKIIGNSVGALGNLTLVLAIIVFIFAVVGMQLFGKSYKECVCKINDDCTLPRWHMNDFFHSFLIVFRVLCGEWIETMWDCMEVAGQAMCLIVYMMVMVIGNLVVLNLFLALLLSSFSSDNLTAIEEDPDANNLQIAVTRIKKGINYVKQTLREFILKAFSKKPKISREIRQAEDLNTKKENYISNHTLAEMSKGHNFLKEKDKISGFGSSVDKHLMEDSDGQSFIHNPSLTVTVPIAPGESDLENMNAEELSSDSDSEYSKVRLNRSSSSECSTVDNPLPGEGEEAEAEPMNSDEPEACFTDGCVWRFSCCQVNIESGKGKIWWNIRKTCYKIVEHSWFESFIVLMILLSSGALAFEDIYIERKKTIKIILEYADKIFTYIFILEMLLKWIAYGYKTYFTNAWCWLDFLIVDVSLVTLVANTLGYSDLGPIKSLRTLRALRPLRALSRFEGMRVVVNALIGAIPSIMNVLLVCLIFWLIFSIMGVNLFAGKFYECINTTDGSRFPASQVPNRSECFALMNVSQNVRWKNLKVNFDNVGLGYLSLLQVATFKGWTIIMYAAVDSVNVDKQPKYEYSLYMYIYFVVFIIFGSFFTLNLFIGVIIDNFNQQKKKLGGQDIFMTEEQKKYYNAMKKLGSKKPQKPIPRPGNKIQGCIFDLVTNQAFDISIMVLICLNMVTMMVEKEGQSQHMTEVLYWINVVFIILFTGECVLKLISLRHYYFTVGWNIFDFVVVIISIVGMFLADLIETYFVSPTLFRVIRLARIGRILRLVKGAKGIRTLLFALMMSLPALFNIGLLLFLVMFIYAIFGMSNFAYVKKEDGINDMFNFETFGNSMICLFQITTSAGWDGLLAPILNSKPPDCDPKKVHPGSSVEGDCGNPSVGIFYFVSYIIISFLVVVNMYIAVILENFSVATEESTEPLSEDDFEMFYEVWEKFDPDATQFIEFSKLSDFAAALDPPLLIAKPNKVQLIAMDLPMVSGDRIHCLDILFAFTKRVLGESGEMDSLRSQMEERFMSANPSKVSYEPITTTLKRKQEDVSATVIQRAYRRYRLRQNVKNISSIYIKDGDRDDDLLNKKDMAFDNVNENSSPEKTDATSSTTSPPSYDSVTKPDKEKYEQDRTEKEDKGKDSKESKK

SMILES	IC50 [1] [µM]	IC50 [2] [µM]
CCOc1ccc(F)c(-c2cc(C)nc([C@@H]3CC[C@]4(CCN(C)C4=O)N3)n2)c1 [Example 8, (2S,5R)-2-[4-(5-Ethoxy-2-fluoro-phenyl)-6-methyl-pyrimidin-2-yl]-7-methyl-1,7-diazaspiro[4.4]nonan-6-one hydrochloride]	2.51	39.8
Cc1cc(-c2ccc(C(F)(F)F)cc2)nc([C@@H]2CC[C@]3(CCN(C)C3=O)N2)n1 [Example 5, (2S,5R)-7-Methyl-2-[4-methyl-6-[4-(trifluoromethyl)phenyl]pyrimidin-2-yl]-1,7-diazaspiro[4.4]nonan-6-one hydrochloride]	100	79.4
CCOc1ccc(F)c(-c2ccnc([C@@H]3CC[C@]4(CCN(C)C4=O)N3)n2)c1 [Example 15, (2S,5R)-2-[4-(5-Ethoxy-2-fluoro-phenyl)pyrimidin-2-yl]-7-methyl-1,7-diazaspiro[4.4]nonan-6-one hydrochloride]	12.6	126
CCOc1ccc(F)c(-c2cc(C)nc([C@@H]3CC[C@@]4(CCN(C)C4=O)N3)n2)c1 [Example 11, (2S,5S)-2-[4-(5-Ethoxy-2-fluoro-phenyl)-6-methyl-pyrimidin-2-yl]-7-methyl-1,7-diazaspiro[4.4]nonan-6-one hydrochloride]	3.98	79.4
CCOc1ccc(F)c(-c2cc(C)nc([C@H]3CC[C@]4(CCCNC4=O)N3)n2)c1 [Example 12, hydrochloride]	2	20
CCOc1ccc(F)c(-c2ccnc([C@@H]3CC[C@@]4(CCN(C)C4=O)N3)n2)c1 [Example 16, (2S,5S)-2-[4-(5-Ethoxy-2-fluoro-phenyl)pyrimidin-2-yl]-7-methyl-1,7-diazaspiro[4.4]nonan-6-one hydrochloride]	12.6	126
CN1CC[C@@]2(CC[C@H](c3nccc(-c4ccc(C(F)(F)F)cc4)n3)N2)C1=O [Example 1, (2R,5S)-7-Methyl-2-[4-[4-(trifluoromethyl)phenyl]pyrimidin-2-yl]-1,7-diazaspiro[4.4]nonan-6-one hydrochloride]	10	126
CN1CC[C@]2(CC[C@@H](c3nccc(-c4ccc(C(F)(F)F)cc4)n3)N2)C1=O [Example 3, (2S,5R)-7-Methyl-2-[4-[4-(trifluoromethyl)phenyl]pyrimidin-2-yl]-1,7-diazaspiro[4.4]nonan-6-one hydrochloride]	31.6	158
CCOc1ccc(F)c(-c2cc(C)nc([C@@H]3CC[C@]4(CCCNC4=O)N3)n2)c1 [Example 13, hydrochloride]	1.58	7.94
CCOc1ccc(F)c(-c2cc(C)nc([C@H]3CC[C@]4(CCN(C)C4=O)N3)n2)c1 [Example 9, (2R,5R)-2-[4-(5-Ethoxy-2-fluoro-phenyl)-6-methyl-pyrimidin-2-yl]-7-methyl-1,7-diazaspiro[4.4]nonan-6-one hydrochloride]	1.58	12.6

Results, then the compound that gave them:

IC50 [1] [µM]	IC50 [2] [µM]	SMILES
2	20	Cc1cc(-c2cc(OC(F)(F)F)ccc2F)nc([C@H]2CC[C@]3(CCN(C)C3=O)N2)n1 [Example 33, (2R,5R)-2-[4-[2-Fluoro-5-(trifluoromethoxy)phenyl]-6-methyl-pyrimidin-2-yl]-7-methyl-1,7-diazaspiro[4.4]nonan-6-one hydrochloride]
7.94	79.4	Cc1cc(-c2cc(OC(F)(F)F)ccc2F)nc([C@@H]2CC[C@]3(CCN(C)C3=O)N2)n1 [Example 34, (2S,5R)-2-[4-[2-Fluoro-5-(trifluoromethoxy)phenyl]-6-methyl-pyrimidin-2-yl]-7-methyl-1,7-diazaspiro[4.4]nonan-6-one hydrochloride]
20	158	CC(C)Oc1ccc(-c2ccnc([C@@H]3CC[C@]4(CCN(C)C4=O)N3)n2)cc1 [Example 24, (2S,5R)-2-[4-(4-Isopropoxyphenyl)pyrimidin-2-yl]-7-methyl-1,7-diazaspiro[4.4]nonan-6-one hydrochloride]
1.58	15.8	CCOc1ccc(F)c(-c2cc(C)nc([C@H]3CC[C@@]4(CCCNC4=O)N3)n2)c1 [Example 37, hydrochloride]
31.6	158	Cc1cc(-c2ccc(C(F)(F)F)cc2)nc([C@@H]2CC[C@]3(CCNC3=O)N2)n1 [Example 40, (2S,5R)-2-[4-Methyl-6-[4-(trifluoromethyl)phenyl]-pyrimidin-2-yl]-1,7-diazaspiro[4.4]nonan-6-one hydrochloride]
3.16	100	Cc1cc(-c2cc(OC(F)(F)F)ccc2F)nc([C@@H]2CC[C@@]3(CCN(C)C3=O)N2)n1 [Example 31, (2S,5S)-2-[4-[2-Fluoro-5-(trifluoromethoxy)phenyl]-6-methyl-pyrimidin-2-yl]-7-methyl-1,7-diazaspiro[4.4]nonan-6-one hydrochloride]
20	316	Cc1cc(-c2ccc(OC(F)(F)F)cc2)nc([C@H]2CC[C@]3(CCN(C)C3=O)N2)n1 [Example 30, (2R,5R)-7-Methyl-2-[4-methyl-6-[4-(trifluoromethoxy)phenyl]pyrimidin-2-yl]-1,7-diazaspiro[4.4]nonan-6-one hydrochloride]
2.51	39.8	Cc1cc(-c2cc(OC(F)(F)F)ccc2F)nc([C@H]2CC[C@@]3(CCN(C)C3=O)N2)n1 [Example 32, (2R,5S)-2-[4-[2-Fluoro-5-(trifluoromethoxy)phenyl]-6-methyl-pyrimidin-2-yl]-7-methyl-1,7-diazaspiro[4.4]nonan-6-one hydrochloride]
63.1	1580	CC(C)Oc1ccc(-c2ccnc([C@H]3CC[C@]4(CCN(C)C4=O)N3)n2)cc1 [Example 23, (2R,5R)-2-[4-(4-Isopropoxyphenyl)pyrimidin-2-yl]-7-methyl-1,7-diazaspiro[4.4]nonan-6-one hydrochloride]
10	63.1	Cc1cc(-c2ccc(OC(F)(F)F)cc2)nc([C@H]2CC[C@@]3(CCN(C)C3=O)N2)n1 [Example 27, (2R,5S)-7-Methyl-2-[4-methyl-6-[4-(trifluoromethoxy)phenyl]pyrimidin-2-yl]-1,7-diazaspiro[4.4]nonan-6-one hydrochloride]
10	63.1	CCOc1ccc(F)c(-c2ccnc([C@H]3CC[C@@]4(CCN(C)C4=O)N3)n2)c1 [Example 17, (2R,5S)-2-[4-(5-Ethoxy-2-fluoro-phenyl)pyrimidin-2-yl]-7-methyl-1,7-diazaspiro[4.4]nonan-6-one hydrochloride]
50.1	501	Cc1cc(-c2ccc(C(F)(F)F)cc2)nc([C@H]2CC[C@]3(CCNC3=O)N2)n1 [Example 42, (2R,5R)-2-[4-Methyl-6-[4-(trifluoromethyl)phenyl]pyrimidin-2-yl]-1,7-diazaspiro[4.4]nonan-6-one hydrochloride]
12.6	126	Cc1cc(-c2ccc(OC(F)(F)F)cc2)nc([C@@H]2CC[C@]3(CCN(C)C3=O)N2)n1 [Example 29, (2S,5R)-7-Methyl-2-[4-methyl-6-[4-(trifluoromethoxy)phenyl]pyrimidin-2-yl]-1,7-diazaspiro[4.4]nonan-6-one hydrochloride]
